The values below come from paper PMC9251361, “Effects of LPS Composition in Escherichia coli on Antibacterial Activity and Bacterial Uptake of Antisense Peptide-PNA Conjugates” (Frontiers in Microbiology, 2022).

In series [1] the test system is E. coli K12 MG1655. The series can be described thus: microbe, parasite or virus in culture. Type of series: cell-based, Escherichia coli. The settings on record: 37°C, 18 h; for MIC values: Table 3, strain MG1655. The protocol: (§1) All strains used in this study are listed in Supplementary Table S1. E. coli strains WD101 and WD101ΔeptAΔarnD (WD101ΔΔ) were kindly provided by Professor M. Stephen Trent (University of Georgia, USA). E. coli strains DB wild type, DB L5, and DB L9 were kindly provided by Dr. Douglas Browning (University of Birmingham, UK). Single deletion strains for envelope mutants were obtained from the Keio-collection (Baba et al., [2006]). All strains were grown in non-cation adjusted Muller Hinton broth (MHB) (Sigma, Cat. No. 70192). BPP-PNA conjugates (Table 1) were obtained as described previously (Good et al., [2001]; Ghosal et al., [2013]; Hansen et al., [2016]).
(§2) Minimum inhibitory concentration (MIC) values were determined by broth microdilution according to standard protocols adapted to peptide-based antimicrobial compounds (Goltermann and Nielsen, [2020]). Briefly, 190 μl bacterial cell culture containing ≈10^5 cfu/ml was dispensed into a 96-well plate (Thermo Scientific, Nunc Cat. No. 260896, 96F straight w/lid) along with 10 μl PNA stock solution or antibiotic. The plate was incubated in a Tecan Genios plate reader at 37°C for 18 h, and OD was measured every 20 min at 595 nm. The MIC was determined as the lowest concentration, which inhibited visible growth (OD < 0.1) in the wells. […] Experiments were performed in triplicates as a minimum.

The subject of series [2] is E. coli 122 ΔrfaF (ATCC25922 ΔrfaF). Type of series: cell-based, Escherichia coli. The settings on record: Table 2; strain 122 ΔrfaF; MHB, 37°C, 18 h. As to the method: as §1, §2
In series [3] the test system is E. coli 123 ΔrfaG (ATCC25922 ΔrfaG). Type of series: cell-based, Escherichia coli. As to conditions: Table 2; strain 123 ΔrfaG; MHB, 37°C, 18 h. As to the method: as §1, §2
The subject of series [4] is E. coli ATCC25922. Type of series: cell-based, Escherichia coli. As to conditions: strain ATCC25922, MHB, 37°C, 18 h; for MIC values: Table 3. The protocol: as §1, §2
The test system of series [5] is E. coli R2 core type (F632). The series is classed as cell-based, Escherichia coli. The settings on record: Table 2; strain R2; MHB, 37°C, 18 h. The protocol:
as §1, §2

Series [6] relates to E. coli R3 core type (F653). The series is classed as cell-based, Escherichia coli. As to conditions: Table 2; strain R3; MHB, 37°C, 18 h. The protocol:
as §1, §2

In series [7] the test system is E. coli R4 core type (F2513). Type of series: cell-based, Escherichia coli. The settings on record: Table 2; strain R4; MHB, 37°C, 18 h. As to the method: as §1, §2
The test system of series [8] is E. coli WD101 (polymyxin-resistant pmrA^C). The series is classed as cell-based, Escherichia coli. The settings on record: Table 2; strain WD101; MHB, 37°C, 18 h. The protocol:
as §1, §2

Series [9] deals with E. coli WD101ΔΔ. Type of series: cell-based, Escherichia coli. The settings on record: Table 2; strain WD101ΔΔ; MHB, 37°C, 18 h. As to the method: as §1, §2
Series [10] concerns E. coli R1 core type (F470). Type of series: cell-based, Escherichia coli. As to conditions: Table 2, strain R1* (48 h), MHB, 37°C. The protocol: as §1
Minimum inhibitory concentration (MIC) values were determined by broth microdilution according to standard protocols adapted to peptide-based antimicrobial compounds (Goltermann and Nielsen, [2020]). Briefly, 190 μl bacterial cell culture containing ≈10^5 cfu/ml was dispensed into a 96-well plate (Thermo Scientific, Nunc Cat. No. 260896, 96F straight w/lid) along with 10 μl PNA stock solution or antibiotic. […] The MIC was determined as the lowest concentration, which inhibited visible growth (OD < 0.1) in the wells. […] Experiments were performed in triplicates as a minimum.

Series [11] concerns E. coli 121 ΔrfaE (ATCC25922 ΔrfaE). The series can be described thus: MIC broth microdilution. The series is classed as cell-based, Escherichia coli. As to conditions: Table 2; strain 121 ΔrfaE; MHB, 37°C, 18 h. The protocol: as §1, §2
In general terms: Dilution methods test growth across graded concentrations, often in twofold steps.

In series [12] the test system is E. coli AS19. The series can be described thus: MIC broth microdilution. Type of series: cell-based, Escherichia coli. The settings on record: Table 2; strain AS19; MHB, 37°C, 18 h. The protocol: as §1, §2
Series [13] relates to E. coli ATCC25922 ΔrfaC (120 ΔrfaC). The experiment in a line: MIC broth microdilution. Type of series: cell-based, Escherichia coli. As to conditions: for MIC values: Table 3, strain ATCC25922 ΔrfaC. The protocol:
as §1, §2

For series [14], the system named is E. coli inner core mutants (ΔrfaC, ΔrfaE, ΔrfaF, and ΔrfaG). The experiment in a line: MIC broth microdilution, inner core mutants as a group. Type of series: cell-based, Escherichia coli. As to conditions: all the inner core mutants as well as AS19. The protocol: as §2
Four inner core mutants (ΔrfaC, ΔrfaE, ΔrfaF, and ΔrfaG) with increasingly shortened LPS core (Figure 2A) were investigated. The deletions span the three heptosyl and glycosyltransferases rfaC, rfaF, and rfaG responsible for attaching heptose and glucose, respectively, to the growing LPS core, and rfaE required for the synthesis of the heptose precursor needed for LPS synthesis (Figure 2A). […] Furthermore, all strains were characterized with respect to hydrophobicity and accessible cell surface charge (Figure 2B, vide infra). […] It is known that the peptide portion of the conjugates can have a membrane disruptive effect at high concentrations (Eriksson et al., [2002]). […]

For series [15], the system named is E. coli MG1655 ΔsbmA. The experiment in a line: MIC broth microdilution. Type of series: cell-based, Escherichia coli. The settings on record: Table 3; strain MG1655 ΔsbmA; MHB, 37°C, 18 h. The protocol: as §1, §2
Series [16] in a line: HPLC analysis of BPP-PNA relative hydrophobicity. Type of series: physicochemical. The settings on record: chromatographic measure of hydrophobicity; RP18 column (150 ×3.9 mm DeltaPak, 5 μm); 0 to 40% buffer B (95% acetonitrile, 0.1% TFA) in 30 min; conjugates dissolved in water and mixed; recorded at 260 nm. As to the method: Hydrophobicity of the BPP-PNA conjugates was measured using reversed phase high-performance liquid chromatography (HPLC) on an RP18 column (150 ×3.9 mm DeltaPak, 5 μm; Waters Corporation, Milford, MA, USA). Briefly, all the BPP-PNA conjugates were dissolved in water and mixed. The mixture of BPP-PNA conjugates has been run on HPLC and recorded at 260 nm. The HPLC buffers used in this study are buffer A composed of 5% acetonitrile, 0.1% trifluoroacetic acid (TFA), and 95% H2O, and buffer B composed of 95% acetonitrile, 0.1% TFA, and 5% H2O; the gradient starts from 100% of buffer A, 0% of buffer B, and ends with 60% of buffer A, 40% of buffer B in 30 min. Hydrophobicity of the compound was directly correlated to the HPLC retention time of each conjugate.

Setting [17] is: Table 2, strain K12 MG1655, MHB.

≈ marks a conversion by molar mass, not a printed value. Like-named read-outs stand apart in the source and are kept apart here. Positions of bridges follow the written chain, without caps; N, C: chain ends. Non-standard residues stand in square brackets, D forms with d. Residues, ends and D or L forms follow the SMILES beside them. *: point of attachment. X1 = CC[C@H](C)CCCCC(=O)*; Dab = NCC[C@H](N)C(=O)O

For `CC[C@H](C)CCCCC(=O)N[C@@H](CCN)C(=O)N[C@H](C(=O)N[C@@H](CCN)C(=O)N[C@H]1CCNC(=O)[C@H]([C@@H](C)O)NC(=O)[C@H](CCN)NC(=O)[C@H](CCN)NC(=O)[C@H](CC(C)C)NC(=O)[C@@H](CC(C)C)NC(=O)[C@H](CCN)NC1=O)[C@@H](C)O` [Colistin] (X1-[Dab]T[Dab][Dab][Dab][dL]L[Dab][Dab]T; lactam 4-C (inferred); N-terminus assumed), the “Minimum inhibitory concentration, Colistin” value in [1] (setting [17]) was 0.03 µg/mL (≈ 0.0257 µM); in [2], 0.016 µg/mL (≈ 0.0137 µM); in series [3], ≤ 0.016 µg/mL; in series [4] (Table 2), 0.06 µg/mL (≈ 0.0513 µM); in [5], 0.03 µg/mL (≈ 0.0257 µM); in [6] it was 0.06 µg/mL (≈ 0.0513 µM). Also, the “Minimum inhibitory concentration, Colistin” value in [7] is 0.03 µg/mL (≈ 0.0257 µM); in series [8], 4 µg/mL (≈ 3.42 µM); in series [9], ≤ 0.016 µg/mL; in series [10], 0.016 µg/mL (≈ 0.0137 µM).
As for `CCCCCCCCCCCCOS(=O)(=O)[O-].[Na+]` [SDS, sodium dodecyl sulfate], the “Minimum inhibitory concentration, SDS” value is on record as 0.12% in series [1] (setting [17]); ≤ 0.03% in series [11]; ≤ 0.03% in [12]; ≤ 0.03% in series [13] (Table 2, strain 120 ΔrfaC, MHB, 37°C, 18 h); ≤ 0.03% in series [2]; ≤ 0.03% in [3]. In addition, the “Minimum inhibitory concentration, SDS” value is reported as 0.12% in series [4] (Table 2); >0.5% in series [5]; >0.5% in [6]; ≤ 0.06% in series [7]; 0.12% in [8]; 0.12% in series [9]. Further, the “MIC, SDS” value in [14] is listed as < 0.03%.
Consider “-Cys- RAGLQFPVGRVHRLLRK-NH2 (BF2A) [PNA4030, anti acpP PNA conjugated to buforin 2a (BF2A) via Cys]”, for which the MIC values is 1 µM in series [1] (MHB); <0.25 µM in series [13] (MHB, 37°C, 18 h); 8 to 16 µM in series [15]; 0.5 µM in series [4].
With “-Cys-GKPRPYSPRPTSHPRPIRV-NH2 (Drosocin) [PNA4128, anti acpP PNA conjugated to drosocin via Cys]”, the MIC values in series [1] (MHB) was 0.5 to 1 µM; in [13] (MHB, 37°C, 18 h, listed as 4128) it was <0.06 µM; in [15], 4 to 8 µM; in series [4] (listed as 4128), 1 µM. For the same compound, the “fold lower MIC in the ΔrfaC-mutant than the ATCC25922 control” value in series [13] (ΔrfaC-mutant vs ATCC25922) is reported as “more than 16 fold”.
Consider “-Cys-GKPRPYSPRPTSHPRPIRV-NH2 (Drosocin) [PNA4242, mm for PNA4128]”, for which the MIC values in series [13] (MHB, 37°C, 18 h, listed as 4242) was <1 µM; in series [4] (listed as 4242) it was >8 µM.
For the compound “-Cys-GKPRPYSPRPTSHPRPIRV-R-X-R-NH2 [PNA4448, anti acpP PNA conjugated to drosocin extended by R-X-R]”, the MIC values in [1] (MHB) is 1 to 2 µM; in series [13] (MHB, 37°C, 18 h), <0.12 µM; in [15] it was 2 µM; in series [4] it was 2 µM.
With “-Cys-RAGLQFPVGRVHRLLRK-NH2 (BF2A) [PNA4243, mm for PNA4030]”, the MIC values in series [13] (MHB, 37°C, 18 h) was <2 µM; in series [4], >8 µM.
As for “-Cys-RAGLQFPVGRVHRLLRK-R-X-R-NH2 (BF2A) [PNA4449, anti acpP PNA conjugated to BF2A extended by R-X-R]”, the MIC values in series [1] (MHB) is <0.5 µM; in series [13] (MHB, 37°C, 18 h), <0.25 µM; in series [15] it was >4 µM; in series [4], 1 µM.
On to “-Cys-VDKPPYLPRPRPPRRIYNR-NH2 (oncocin) [PNA4124, anti acpP PNA conjugated to oncocin via Cys]”, for which the MIC values was 8 µM in [1] (MHB); 0.25 µM in series [13] (MHB, 37°C, 18 h, listed as 4124); >8 µM in series [15]; >2 µM in [4] (listed as 4124).
On to “-Cys-VDKPPYLPRPRPPRRIYNR-NH2 (oncocin) [PNA4700, mm for PNA4124]”, for which the MIC values in series [13] (MHB, 37°C, 18 h, listed as 4700) is 4 µM; in series [4] (listed as 4700), >8 µM.
For the compound “H-CTCATACTCT-NH2 [PNA2301, unconjugated anti acpP PNA, H-…-NH2]”, the “HPLC retention time (RT)” value in [16] is 14 min. Further, the Minimum inhibitory concentration in series [1] (Table 2, strain K12 MG1655, non-cation adjusted MHB, ≈10^5 cfu/ml, triplicates minimum) was >32 µM; in series [12], 2 µM; in [2], >4 µM; in series [3], >16 µM; in series [4] (Table 2) it was >16 µM; in [6], >16 µM. Moreover, the Minimum inhibitory concentration in series [7] was >16 µM.
